Source: patent publication US9234046B2, “Treatment of renal disease” (OPSONA Therapeutics Ltd, priority 2007, dated 2016)
Values joined by “and” are separate entries in the source; they are usually repeats but may differ in a detail not shown here. Identical values can stand only once.

How the values were obtained:
C57BL/6 mice [1] = experiment: Nephrotoxic serum + Pam3CysSK4 glomerular inflammation model, 2 hours: glomerular neutrophils and circulating leukocytes; type: in vivo; details: individual mice; 2 hours after disease induction; 50 glomerular cross sections counted
Experimental: (§1) Methods for generating nephrotoxic antibody, blood counts, processing histology, assessment of histology are disclosed in Brown H J, Lock, H R, Sacks S H, Robson M G TLR2 stimulation of intrinsic kidney cells in the induction of immune mediated glomerulonephritis, J Immunol 2006, 177(3):1925-1931, the contents of which are incorporated herein by reference. These methods were followed in the performance of the present example.
(§2) The glomerular histology was assessed at 2 hours and 24 hours following disease induction with NTS. Kidneys were fixed in Bouin's solution and stained with periodic acid-Schiff reagent. At 2 hours, the number of neutrophils (identified by their characteristic nuclear morphology) per 50 glomerular cross sections was counted. At 24 hours, the amount of glomerular thrombosis was assessed by identification of the amount of periodic acid-Schiff-positive material. In total, 50 glomeruli were assessed for each animal for signs of glomerular thrombosis, and a score was assigned as follows: grade 0, no periodic acid-Schiff-positive material; grade 1, <25%; grade 2, 25-50%; grade 3, 50-75%; grade 4, 75-100%. All sections scored for neutrophils and glomerular thrombosis were done so blindly.
200 ul of nephrotoxic serum containing 10 ug of the lipopetide Pam3CysSK4 (EMC microcollections) was given intravenously via the tail vein. […]

C57BL/6 mice [2] = experiment: Nephrotoxic serum + Pam3CysSK4 glomerular inflammation model, 24 hours: albuminuria and glomerular thrombosis; type: in vivo
Experimental: as §1
Kidney samples were fixed for 4 hours in Bouin's solution, transferred into formalin, then processed and embedded in paraffin. Sections were cut at 0.5 μm thickness and stained with periodic acid-Schiff (PAS) reagent. All samples then were assessed blindly for glomerular thrombosis by identification of the amount of PAS-positive material. In total, 50 glomeruli were assessed for each mouse for signs of glomerular thrombosis, and a score was assigned to each as follows: Grade 0, no PAS-positive material; grade 1, […]; grade 2, 25 to 50%, grade 3, 50 to 75%, and grade 4, 75 to 100%. The average glomerular thrombosis score for each mouse then was calculated. Sections also were assessed blindly for glomerular crescents. A total of 50 glomeruli were assessed, and the number of crescents (two or more layers of cells in Bowman's space) was expressed as a percentage.
as §2
Mice were housed in metabolic cages for 24 hours for urine collections. The urine albumin concentration was measured by radial immunodiffusion. The sensitivity of the radial immunodiffusion assay for albumin was 0.05 mg/ml. Urine samples were diluted to 1:40 so that values fell on the standard curve.
200 ul of nephrotoxic serum containing 10 ug of the lipopetide Pam3CysSK4 (EMC microcollections) was given intravenously via the tail vein. 2 hours prior to this, mice were treated as follows. […]
The above groups were place in metabolic cages immediately after induction of disease and exsanguinated under anaesthesia 24 hours later. […] Albuminuria and thrombosis data was analysed after a logarithmic transformation.

[3] = 24 hours, versus other treatment groups

C[C@]12C=CC(=O)C=C1CC[C@@H]1[C@@H]2C(=O)C[C@@]2(C)[C@H]1CC[C@]2(O)C(=O)CO [Prednisone]
pmn/glom (neutrophils per glomerular cross section) (C57BL/6 mice [1]): 0.54 pmn/glom and 0.28 pmn/glom and 0.42 pmn/glom and 0.24 pmn/glom and 0.34 pmn/glom | albuminuria, in words (C57BL/6 mice [2]; [3]): did not reach significance | glomerular thrombosis, in words (C57BL/6 mice [2]; [3]): significantly less thrombosis than PBS but not control antibody treated mice | alb, mg/ml (albuminuria) (C57BL/6 mice [2]; individual mice, 24 hour urine collection, radial immunodiffusion): 2.54 mg/mL and 4.54 mg/mL and 4.71 mg/mL and 4.98 mg/mL | Thromb/50 gloms (glomeruli showing any thrombosis out of a total of 50) (C57BL/6 mice [2]; individual mice, 24 hours after disease induction, treated 2 hours before): 7 /50 gloms (3×) and 3 /50 gloms
